Measurements taken from PMC5972026 (Journal of medicinal chemistry, 2017).
“Also recorded” adds a separate entry of the source. Structures can show the parent of a compound that is named as a salt.

Columns and labels:
[1] = molecular target: A/M2 wt channel (A/Udorn/72) (Influenza A virus, UniProt P0DOF5); experiment: cell-based; format: cell-based
[2] = tested on: A/HK/7/87 virus (H3N2 subtype), wt M2; format: cell-based, influenza A virus
[3] = tested on: A/HK/7/87 virus (H3N2 subtype), wt M2; format: cell-based, influenza A virus; remark: listed apart in the source
MDCK cells = details: 100 μM

Sequence of A/M2 wt channel (A/Udorn/72) (P0DOF5 whole entry, looked up): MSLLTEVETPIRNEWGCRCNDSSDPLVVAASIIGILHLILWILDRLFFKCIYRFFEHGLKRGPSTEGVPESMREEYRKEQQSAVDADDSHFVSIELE

C1CC(C23CC4CC(CC(C4)C2)C3)CCN1 [Compound 2, 4-(1-adamantyl)piperidine hydrochloride]
Binding behaviour [1]: strong binder
Reversibility of inhibition [1]: essentially irreversible
Antiviral activity in the PRA [2]: active
Antiviral activity confirmed in virus yield assay [3]: confirmed

N=C(N)N1CCC(C23CC4CC(CC(C4)C2)C3)CC1 [Compound 7, N-amidyl-4-(1-adamantyl)piperidine hydrochloride]
Binding behaviour [1]: weak binding affinity; also recorded: fast and weak binder
Time after which compound dissociated from the channel [1]: 5 min
Antiviral activity in the PRA [2]: did not display antiviral activity

C1CCC(C23CC4CC(CC(C4)C2)C3)NC1 (stereo not drawn) [Compound 8, 2-(1-adamantyl)piperidine hydrochloride]
Binding behaviour [1]: strong binders; also recorded: very slow but strong binding
Reversibility of inhibition [1]: essentially irreversible
inhibition at 100 µM ([1]; read-out: Inhibition after 6 min of treatment, 100 μM, 6 min): > 90%
Antiviral activity in the PRA [2]: active
Antiviral activity confirmed in virus yield assay [3]: confirmed
Cytotoxicity at highest concentration tested (MDCK cells): devoid of cytotoxicity

Cl.OC1(CC2CCNCC2)C2CC3CC(C2)CC1C3 (stereo not drawn) [Compound 15, 2-(piperidin-4-ylmethyl)adamantan-2-ol hydrochloride]
Antiviral activity in the PRA [2]: active

N=C(N)N1CCC(C=C2C3CC4CC(C3)CC2C4)CC1 [Compound 19, 4-[(adamantan-2-ylidene)methyl]piperidine-1-carboximidamide hydrochloride]
Binding behaviour [1]: weak binding affinity
Antiviral activity in the PRA [2]: did not display antiviral activity

N=C(N)N1CCC(CC2C3CC4CC(C3)CC2C4)CC1 (stereo not drawn) [Compound 20, 4-[(adamantan-2-yl)methyl]piperidine-1-carboximidamide hydrochloride]
Binding behaviour [1]: weak binding affinity
Antiviral activity in the PRA [2]: did not display antiviral activity
